Laboratory results as given in patent US20100099730A1, “ANNELLATED PYRROLE COMPOUNDS FOR CANCER MANAGEMENT” (MERCKLE GMBH, priority 2006, published 2010).

Key:
[1] = tested on: PGE2 production by HCA-7 cells; test: PGE2 level in HCA-7 culture medium, enzyme immunoassay; type: cell-based, human; conditions: all doses tested (100-150 μM), 24 hours
Protocol: (§1) For treatment with licofelone ([…] GmbH, Ulm, Germany), exponentially growing cells were trypsinized, seeded in regular medium (2×10^4 cells/well in 96-well plates; 1.2×10^5 cells/well in 24-well plates; 6×10^5 cells/well in 6-well plates; 1.5×10^6 cells in 25 cm^2 flasks) and incubated for 24 h. The medium was then replaced either with control medium or with medium containing 100, 125 or 150 μM licofelone. This drug was dissolved in dimethyl sulfoxide (DMSO) and diluted into the medium to obtain the required final concentration before each experiment. Fresh medium, alone or supplemented with licofelone, was completely replaced every 48 hours. To control for an effect of DMSO, control samples were treated in parallel with an equivalent concentration of this solvent. For determination of PGE2 and LTB4 production, HCA-7 were seeded in a 24-well plates at the density of 1.2×10^5 cells/well and grown in complete medium for 24 hours. Cells were then serum-starved overnight before being exposed to increasing doses of licofelone (100-150 μM) in serum-free medium for additional 24 hours. The harvested medium was centrifuged at 500×g for 5 min (4° C.) to remove floating cells and the supernatant was collected and assayed following customer instructions. The levels of PGE2 and LTB4 were measured by enzyme immunoassay. Results are expressed as picograms/ml of medium. […]

caspase-3 = test: Western blot of caspase-3 cleavage in HCA-7 cells; type: cell-based, human; conditions: licofelone 150 μM, 0-24 hours, maximum after 24 hours
Protocol: (§2) For Western blot analysis, cells were seeded in a 25 cm^2 flask at the density of 1.5×10^6 and grown in complete medium for 24 hours. At the end of incubation cells were scraped from flasks and lysed in a buffer containing 10 mM Tris, 1% SDS, 1 mM Na orthovanadate and a protease inhibitors cocktail. Samples containing 50 μg of protein were subjected to gel electrophoresis in 10% polyacrylamide gels in the presence of SDS. The proteins were then transferred electrophoretically to a Hybond-C nitrocellulose membrane at 300 V for 1 h at 4° C. The membrane was subsequently immersed in 0.5% Ponceau S in 1% acetic acid to stain the proteins and to confirm that equal amounts of protein were loaded in each lane and transferred efficiently. After incubation overnight in a blocking solution containing 5% bovine skim milk powder in 10 mM phosphate buffered saline (PBS, pH 7.4), the nitrocellulose membrane was incubated for 1 h with primary antibodies: anti COX-1, anti COX-2 and anti 5-LOX were used in HCA-7, Caco-2 and LS174T at a dilution of 1:500; anti Caspase-3 and anti PARP-1 were used in HCA-7 at the dilution of 1:250. The membrane was then washed with PBS buffer to remove the excess unbound antibodies and incubated for 1 h with HRP-conjugated secondary antibody, at a dilution of 1:1000. Detection was performed by using the ECL procedure developed by Amersham. […]

HCA-7 cells [2] = test: MTT reduction assay, HCA-7 survival/proliferation; type: cell-based, human
Protocol: LS174T and CACO-2 were a generous gift of Prof. F. Dall'Olio (Dept. of Experimental Pathology, University of Bologna, Italy); HCA-7 cells were purchased from European Collection of Cell Cultures. These lines were cultured in Dulbecco's modified Eagle's Medium with 4.5 g/L glucose (DMEM), supplemented with 10% (v/v) heat-inactivated FBS, 2 mM L-glutamine, 100 U/ml penicillin and 100 μg/ml streptomycin. Cells were grown in monolayers, incubated at 37° C. in a humidified atmosphere of 95% air and 5% CO2 and routinely passaged using trypsin-EDTA 0.025%. For treatment with licofelone ([…] GmbH, Ulm, Germany), exponentially growing cells were trypsinized, seeded in regular medium (2×10^4 cells/well in 96-well plates; 1.2×10^5 cells/well in 24-well plates; 6×10^5 cells/well in 6-well plates; 1.5×10^6 cells in 25 cm^2 flasks) and incubated for 24 h. The medium was then replaced either with control medium or with medium containing 100, 125 or 150 μM licofelone. This drug was dissolved in dimethyl sulfoxide (DMSO) and diluted into the medium to obtain the required final concentration before each experiment. Fresh medium, alone or supplemented with licofelone, was completely replaced every 48 hours. To control for an effect of DMSO, control samples were treated in parallel with an equivalent concentration of this solvent. The effect of licofelone on HCA-7 survival/proliferation was determined colourimetrically using the MTT assay. MTT is a yellow-coloured tetrazolium salt that is taken up and cleaved only by metabolically active cells, which reduce it to a coloured, water-insoluble formazan salt. The solubilized formazan product can be quantified via absorbance at 570 nm measured using a 96-well-format spectrophotometer and the absorbance correlates directly with cell number. 2×10^4 cells/well were plated in a 100 μl volume in 96-well plates and grown for 24 h in DMEM supplemented with 10% FBS. Complete medium containing the indicated amount of licofelone, alone or in association with exogenous PGE2 and/or LTB4), was then replaced to each well. At the indicated times, 10 μl of MTT (5 mg/ml) was added and cells were incubated at 37° C. for 4 hours. The tetrazolium crystals were solubilized by the addition of 10% SDS in 0.01 N HCl. After overnight incubation at 37° C., the absorbance was measured at 570 nm using a 96-well spectrophotometric microplate reader. Survival/proliferation rate was calculated as follows (A570 treatment/A570 control×100). All determinations were carried out in triplicate.

HCA-7 cells [3] = test: Cell morphology: phase-contrast and Hoechst 33342 fluorescence microscopy; type: cell-based, human; conditions: licofelone 150 μM
Protocol: Morphological changes in the nuclear chromatin of cells undergoing apoptosis were detected by staining with the DNA-binding fluorochrome bis-benzimide stain. Briefly, HCA-7 were seeded in a flat-bottomed 96-well plate at the density of 2×10^4 cells/well and grown for 24 hours in complete medium. Cells where then cultured in the presence or absence of licofelone 150 μM at the indicated times; at the end of incubation, Hoechst 33342 (1 μg/ml) was added to each well for at least 20 min. at 37° C. HCA-7 cells were then washed with phosphate-buffered saline (PBS), fixed in 4% formaldehyde and observed under a fluorescence microscope.

[4] = tested on: LTB4 production by HCA-7 cells; test: LTB4 level in HCA-7 culture medium, enzyme immunoassay; type: cell-based, human; conditions: 150 μM, 24 hours, serum-free medium
Protocol: as §1

[5] = Plasma ML3000 level after immediate release dosage form; type: in vivo; conditions: for 8 hours
PARP = test: Western blot of PARP cleavage in HCA-7 cells; type: cell-based, human; conditions: licofelone 150 μM, almost complete at 24 hours
Protocol: as §2

HCA-7 cells [6] = test: Cell-cycle distribution by flow cytometry (propidium iodide), sub-G1 cells; type: cell-based, human; conditions: 0-150 μM, after 48 hours of treatment
Protocol: For treatment with licofelone ([…] GmbH, Ulm, Germany), exponentially growing cells were trypsinized, seeded in regular medium (2×10^4 cells/well in 96-well plates; 1.2×10^5 cells/well in 24-well plates; 6×10^5 cells/well in 6-well plates; 1.5×10^6 cells in 25 cm^2 flasks) and incubated for 24 h. The medium was then replaced either with control medium or with medium containing 100, 125 or 150 μM licofelone. This drug was dissolved in dimethyl sulfoxide (DMSO) and diluted into the medium to obtain the required final concentration before each experiment. Fresh medium, alone or supplemented with licofelone, was completely replaced every 48 hours. To control for an effect of DMSO, control samples were treated in parallel with an equivalent concentration of this solvent. The cell-cycle distribution for control and drug-treated cells was determined after 24 and 48 hours of treatment. Cells were seeded at the density of 6×10^5 cells/well onto 6-well plates and allowed to adhere for 24 h. Cells were then incubated with licofelone for 24 and 48 hours and then harvested by trypsinization. […] Subsequently, DNA content was measured using a flow cytometer and the cell-cycle distribution was calculated using the Phoenix Multicycle for Windows cell-cycle analysis software. A minimum of 10'000 events were measured for each sample.

CC1(C)Cc2c(-c3ccccc3)c(-c3ccc(Cl)cc3)c(CC(=O)O)n2C1 [licofelone, [2,2-dimethyl-6-(4-chlorophenyl)-7-phenyl-2,3-dihydro-1H-pyrrolizine-5 yl]-acetic acid]
inhibition of PGE2 production [1]: strongly inhibited PGE2 production
cleavage of 34-kDa pro-enzyme caspase-3 to active 17-kDa form (caspase-3): strong and time-dependent cleavage
reversal of antiproliferative effect by exogenous PGE2 or LTB4 (HCA-7 cells [2]; 150 μM licofelone, 48 hours, exogenous PGE2 and LTB4 added): neither PGE2 or LTB4 administration was able to reverse the antiproliferative effect
IC50 (HCA-7 cells [2]; Homo sapiens, HCA-7, after 24 hours of treatment): 125 ± 6.25 µM
IC50 (HCA-7 cells [2]; Homo sapiens, HCA-7, after 48 hours of treatment): 72 ± 3.6 µM
inhibition at 150 µM (HCA-7 cells [2]; Homo sapiens, HCA-7, licofelone 150 μM, read-out: inhibition of HCA-7 growth): ~90%
appearance of membrane blebbing after administration of the drug (HCA-7 cells [3]): 10 to 12 h
morphological changes of nuclei after drug addition (HCA-7 cells [3]; Hoechst staining): 16-18 hours
reduction of LTB4 levels with respect to untreated cells [4]: 85%
plasma ML3000 concentration maintained ([5]; dose 2.5 mg/kg): above 100 ng/mL
plasma ML3000 concentration maintained ([5]; dose 5 mg/kg): > 200 ng/mL
degradation of PARP (85-kDa band) (PARP): marked degradation of PARP
accumulation of sub-G1 phase cells, maximum (HCA-7 cells [6]): 85%
